Reference: US20050075361A1 (priority 2002, published 2005)
Like-named read-outs stand apart in the source and are kept apart here.

What was measured:
[1] = test system: male Sprague-Dawley rats; conditions: rat, in vivo
[2] = cited from earlier work
[3] = parenteral, weight basis; cited from earlier work
[4] = cited from earlier work; remark: listed apart in the source
[5] = intravenous, single dose of about 0.3 mg

SMILES	Analgesic duration [1]	duration of analgesic action [1] [h]	mean duration of analgesia ([2]; single intramuscular or intravenous dose of 0.2 to 0.3 mg or 2 to 4 μg/kg)	Analgesic duration ([1]; sc)	duration of action ([1]; sc) [h]	duration of action ([2]; intramuscular or intravenous injection) [h]	analgesic potency relative to meperidine [3]	analgesic potency relative to pentazocine [3]	Cmax ([4]; 0.4 mg sublingual dose) [ng/mL]	Tmax ([4]; 0.4 mg sublingual dose) [min]	systemic availability ([4]; 0.4 mg sublingual dose) [%]	Total plasma clearance ([4]; conscious postoperative patients)	mean peak plasma buprenorphine concentration ([4]; intramuscular second 0.3-mg dose 3 hours after initial intravenous dose)	plasma concentration ([4]; intramuscular second 0.3-mg dose, after about 3 hours)	plasma concentration ([4]; intravenous about 0.3 mg, after about 5 minutes)	plasma concentration ([4]; intravenous about 0.3 mg, after about 3 hours)	mean peak plasma drug concentration [4, 5]	time of peak plasma concentration [4, 5] [min]
CO[C@@]12CC[C@@]3(C[C@@H]1[C@](C)(O)C(C)(C)C)[C@H]1Cc4ccc(O)c5c4[C@@]3(CCN1CC1CC1)[C@H]2O5.Cl [Buprenorphine HCl, buprenorphine hydrochloride]	5 h	3 to 5	six															
CO[C@@]12CCC3(C[C@@H]1C(C)(O)C(C)(C)C)[C@H]1Cc4ccc(O)c5c4[C@@]3(CCN1CC1CC1)[C@H]2O5 (stereo partly drawn) [Buprenorphine base, (5α,7α(S)-17-cyclopropyl-methyl)-α-(1,1-dimethylethyl)-4,5-epoxy-18,19-dihydro-3-hydroxy-6-methoxy-α-methyl-6,14-ethenomorphinan-7-methanol]	48; 48; 50 h	48 to 50		48; 50; 48 h	48 to 50													
CO[C@@]12CCC3(C[C@@H]1C(C)(O)C(C)(C)C)[C@H]1Cc4ccc(O)c5c4[C@@]3(CCN1CC1CC1)[C@H]2O5 (stereo partly drawn) [Buprenorphine, (5α,7α(S)-17-cyclopropyl-methyl)-α-(1,1-dimethylethyl)-4,5-epoxy-18,19-dihydro-3-hydroxy-6-methoxy-α-methyl-6,14-ethenomorphinan-7-methanol]						6 to 8	about 600 times	about 200 times	0.5 ± 0.06	210 ± 40	57.7±6	approximately 0.28 L/minute	about 3.6 ng/mL	about 0.4 ng/mL	about 9 ng/mL	about 0.4 ng/mL	about 18 ng/mL	≤ 2
